The target of data set [1] is T1, CYP3A4 (Homo sapiens, UniProt P08684). Briefly: Vivid CYP screening kit, recombinant CYP3A4. The format is biochemical. Also on record: purchased Thermo Fisher Scientific; host or cells: insect microsomal fractions. Conditions: recombinant enzyme, 15 min incubation, absolute IC50; read-out: CYP3A4 inhibition IC50. The method, then:
CYP inhibitory assay was performed as described previously. Experiments were performed with commercial Vivid CYP screening kits containing insect microsomal fractions enriched with a specific human CYP isoform, human CYP reductase, and in some cases, human cytochrome b5. The potential inhibitory activity of ensartinib toward CYP1A2, CYP2B6, CYP2C8, CYP2C9, CYP2C19, CYP2D6, CYP3A4, and CYP3A5 (i.e., all CYP isoforms that drug regulatory authorities recommend for testing of inhibition by new molecular entities) was then examined. Experiments were performed using a kinetic mode in black 96-well plates according to the manufacturer´s instructions. Briefly, 5-point serial dilutions of ensartinib or the model inhibitor recommended by the manufacturer in buffer were transferred into the wells, then a master mix consisting of a CYP isoenzyme with an NADPH regeneration system in buffer was added. After a 10 min pre-incubation, the reaction was initiated by adding a mixture of NADP^+ and the appropriate Vivid substrate, after which fluorescence was measured at 1 min intervals for 60 min using an Infinite M200 Pro microplate reader (Tecan, Männedorf, Switzerland). The enzyme concentration and incubation interval used for data evaluation (15 min) placed the systems within the linear regions of the appropriate reaction velocity curves. […]
Target sequence in this assay (P08684 2-503 limits assumed): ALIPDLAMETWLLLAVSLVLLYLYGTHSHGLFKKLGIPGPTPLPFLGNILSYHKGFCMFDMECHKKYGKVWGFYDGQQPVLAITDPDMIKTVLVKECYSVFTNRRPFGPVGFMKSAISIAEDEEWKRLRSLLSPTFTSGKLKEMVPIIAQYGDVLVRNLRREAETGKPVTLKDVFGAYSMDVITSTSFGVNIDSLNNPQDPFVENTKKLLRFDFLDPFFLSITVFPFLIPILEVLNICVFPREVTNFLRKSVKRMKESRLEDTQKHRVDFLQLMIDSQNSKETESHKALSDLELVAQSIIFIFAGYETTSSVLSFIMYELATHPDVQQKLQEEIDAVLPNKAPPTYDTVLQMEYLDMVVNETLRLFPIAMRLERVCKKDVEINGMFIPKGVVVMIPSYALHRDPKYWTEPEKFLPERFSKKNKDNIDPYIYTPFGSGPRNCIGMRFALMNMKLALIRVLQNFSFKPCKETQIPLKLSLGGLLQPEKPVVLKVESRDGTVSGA

The test system of data set [2] is T2, ABCB1.
T2 construct: purchased Solvo Biotechnology SB MDR1/P-gp; host or cells: Sf9 cell membranes
Briefly: ABCB1 ATPase assay (ABCB1-Sf9 membrane fraction). The data set is classed as biochemical. Conditions: ABCB1-Sf9 membranes. The method, then:
The ABCB1 ATPase assay was performed with minor modifications as described previously. The ATPase activitity was determined using ABCB1 […] ATPase Kit according to the manufacturer’s instructions. Sf9 cell membranes (4 µg protein per well) were mixed with various concentrations of ensartinib. The reaction mixture was then incubated for 10 min at 37 °C in the presence or absence of 1.2 mM sodium orthovanadate. The ATPase reactions were started by the addition of 10 mM ATP magnesium salt and stopped 10 min later. After 30 min incubation, absorbance was measured at 590 nm using the microplate reader (Infinite M200, Tecan, Salzburg, Austria). Phosphate standards were present in each plate; verapamil was used as positive control for ABCB1 stimulation.

In data set [3] the test system is HL60-ABCC1 cells. Briefly: XTT proliferation assay, HL60-ABCC1. The data set is classed as cell-based. To be noted: Homo sapiens, 48 h, read-out: IC50, sensitivity to ensartinib.
Method: The MTT method is not readily adapted for use with suspension cell cultures, therefore the XTT assay was used to assess the proliferation of HL60 cells. Briefly, HL60-par, HL60-ABCB1, HL60-ABCG2, and HL60-ABCC1 cells were seeded at 2 × 10^4 cells/well in 96-well culture plates. Immediately after seeding, dilutions of the tested drugs or drug combinations were added to the cells. The plates were then incubated under standard conditions (37 °C, 5% CO2) for 48 h, after which XTT solution in PBS (1 mg/mL) and phenazine methosulfate (7.50 µg/mL) were added to the cells and the plates were incubated for another 5 h. Finally, the cells’ absorbance was measured at 450 nm using a microplate reader (Infinite M200, Tecan, Salzburg, Austria). This method was used to assess the effect of ABC transporters on sensitivity to ensartinib and in drug combination assays.
Data set [4] addresses T3, ABCC1 (Homo sapiens, UniProt P33527).
T3 construct: expressed in transfected cells; host or cells: MDCKII-ABCC1 (from Dr. Alfred Schinkel, The Netherlands Cancer Institute)
Briefly: daunorubicin accumulation assay (flow cytometry) in MDCKII-ABCC1 cells. The format is cell-based. To be noted: 2 µM daunorubicin, 1 h, read-out: IC50, inhibition of daunorubicin efflux by ABCC1. The method, then: The flow-cytometric inhibitory assay with daunorubicin and mitoxantrone was performed with minor modifications as described previously. MDCKII-par, MDCKII-ABCB1, MDCKII-ABCG2, and MDCKII-ABCC1 cell lines were seeded at densities of 22.0 × 10^4, 15.0 × 10^4, 25.0 × 10^4, and 22.0 × 10^4 cells/well, respectively, on a 12-well plate and then incubated for 24 h to reach approximately 70–80% confluence. Further steps including cell washing, the preparation of drug/model inhibitor dilutions, and their addition to cells were performed as described above. After the 10 min pre-incubation period, 2 µM daunorubicin (a substrate of ABCB1/ABCC1) or 1 µM mitoxantrone (ABCG2 substrate) were promptly added to all wells other than those containing background samples, then the plate was incubated for 1 h under standard conditions. The plates were subsequently placed on ice, the cells were washed twice with ice-cold 1× PBS, and 10× trypsin without phenol red was added. After complete trypsinization, the cells were vigorously resuspended in ice-cold 1× PBS containing 2% FBS. Samples were then transferred into test-tubes and kept on ice until their fluorescence could be measured using a flow cytometer (BD FACSCanto II, Allschwil, Switzerland). The excitation/emission wavelengths for daunorubicin and mitoxantrone were 490/565 and 640/670 nm, respectively.

Data set [5] deals with T4, ABCB1 (Homo sapiens, UniProt P08183).
T4 construct: expressed in transfected cells; host or cells: MDCKII-ABCB1 (from Dr. Alfred Schinkel, The Netherlands Cancer Institute)
T4 sequence (P08183 whole entry): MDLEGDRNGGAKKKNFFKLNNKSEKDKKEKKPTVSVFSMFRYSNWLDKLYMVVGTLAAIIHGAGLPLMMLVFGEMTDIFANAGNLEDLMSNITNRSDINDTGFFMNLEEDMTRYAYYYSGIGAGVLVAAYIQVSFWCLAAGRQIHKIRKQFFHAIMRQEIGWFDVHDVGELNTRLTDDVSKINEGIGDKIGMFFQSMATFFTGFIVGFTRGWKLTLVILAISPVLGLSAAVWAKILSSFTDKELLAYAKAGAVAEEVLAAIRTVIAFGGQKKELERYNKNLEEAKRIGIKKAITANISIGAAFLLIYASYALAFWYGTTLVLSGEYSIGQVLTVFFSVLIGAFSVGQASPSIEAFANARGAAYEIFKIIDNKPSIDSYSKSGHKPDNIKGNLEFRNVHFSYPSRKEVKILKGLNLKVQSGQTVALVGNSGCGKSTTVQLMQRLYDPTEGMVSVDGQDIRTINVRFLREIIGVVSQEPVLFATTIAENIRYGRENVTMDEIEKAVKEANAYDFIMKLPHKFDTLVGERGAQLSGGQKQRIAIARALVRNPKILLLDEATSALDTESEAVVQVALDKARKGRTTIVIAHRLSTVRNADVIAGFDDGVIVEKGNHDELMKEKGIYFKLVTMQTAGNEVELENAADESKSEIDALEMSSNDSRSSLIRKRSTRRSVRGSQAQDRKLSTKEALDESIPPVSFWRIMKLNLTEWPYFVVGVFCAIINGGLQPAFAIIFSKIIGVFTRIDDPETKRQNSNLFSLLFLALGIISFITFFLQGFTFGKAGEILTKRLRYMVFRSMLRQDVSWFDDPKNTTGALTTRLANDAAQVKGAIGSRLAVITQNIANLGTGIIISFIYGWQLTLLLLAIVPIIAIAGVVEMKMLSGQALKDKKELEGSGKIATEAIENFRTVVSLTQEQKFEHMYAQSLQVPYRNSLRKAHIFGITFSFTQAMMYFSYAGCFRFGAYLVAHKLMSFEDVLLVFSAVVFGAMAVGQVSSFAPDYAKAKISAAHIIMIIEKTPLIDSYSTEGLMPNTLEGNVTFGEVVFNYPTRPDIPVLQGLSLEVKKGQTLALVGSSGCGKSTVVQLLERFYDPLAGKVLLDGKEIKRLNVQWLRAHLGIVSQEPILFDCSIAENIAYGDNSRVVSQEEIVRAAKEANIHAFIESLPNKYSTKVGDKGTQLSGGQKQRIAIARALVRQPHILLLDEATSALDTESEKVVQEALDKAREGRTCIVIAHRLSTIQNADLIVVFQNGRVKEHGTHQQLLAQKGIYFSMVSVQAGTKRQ
Briefly: hoechst 33342 accumulation assay in MDCKII-ABCB1 cells. The format is cell-based. To be noted: read-out: IC50, inhibition of ABCB1 (hoechst 33342 accumulation). The method, then:
Cellular accumulation assay with hoechst 33342 and calcein AM was performed as described previously. Briefly, MDCKII-par, MDCKII-ABCB1, MDCKII-ABCG2, and MDCKII-ABCC1 cells were seeded at densities of 5.0 × 10^4, 5.0 × 10^4, 5.5 × 10^4, and 6.0 × 10^4 cells/well, respectively, on a transparent 96-well plate and grown to full confluence for 24 h under standard conditions. The cells were then washed twice with 1 × PBS, after which was added either a dilution of ensartinib in Opti-MEM (1, 5, 10, 25, or 50 µM) or a specific inhibitor to act as a positive control (1 µM LY335979, 1 µM Ko143, or 25 µM MK-571 for ABCB1, ABCG2, or ABCC1, respectively). Cells were pre-incubated for 10 min, then 8 µM hoechst 33342 (a model substrate for ABCB1 and ABCG2) or 2 µM calcein AM (ABCC1 substrate) diluted in Opti-MEM was quickly added to all wells other than those containing blank samples. The intracellular levels of the substrates were then determined at 1 min intervals for 30 min using a microplate reader (Infinite M200 Pro, Tecan, Männedorf, Switzerland). Fluorescence was monitored in bottom mode using excitation/emission wavelengths of 350/465 and 485/535 nm for hoechst 33342 and calcein AM, respectively.

The nature of data set [6]: MTT proliferation assay, A431-ABCB1. The format is cell-based. Conditions: human, A431-ABCB1 cells, read-out: IC50, sensitivity to ensartinib. The method, then:
(§1) MTT proliferation assay was performed as described previously.

Data set [7] can be described thus: MTT proliferation assay, A431-ABCG2. The format is cell-based. To be noted: human, A431-ABCG2 cells, read-out: IC50, sensitivity to ensartinib. The method, then: as §1
For data set [8], the target named is T1, CYP3A4. Briefly: Inhibition of CYP3A4 in intact HepG2-CYP3A4 cells (P450-Glo, luciferin-IPA). The format is cell-based. Details: expressed in transfected cells; host or cells: HepG2-CYP3A4. To be noted: luciferin-IPA 2 µM, 45 min, normalized to viability, read-out: IC50, inhibition of CYP3A4 in enzyme-overexpressing HepG2 cells.
Target sequence in this assay (P08684 whole entry, canonical isoform): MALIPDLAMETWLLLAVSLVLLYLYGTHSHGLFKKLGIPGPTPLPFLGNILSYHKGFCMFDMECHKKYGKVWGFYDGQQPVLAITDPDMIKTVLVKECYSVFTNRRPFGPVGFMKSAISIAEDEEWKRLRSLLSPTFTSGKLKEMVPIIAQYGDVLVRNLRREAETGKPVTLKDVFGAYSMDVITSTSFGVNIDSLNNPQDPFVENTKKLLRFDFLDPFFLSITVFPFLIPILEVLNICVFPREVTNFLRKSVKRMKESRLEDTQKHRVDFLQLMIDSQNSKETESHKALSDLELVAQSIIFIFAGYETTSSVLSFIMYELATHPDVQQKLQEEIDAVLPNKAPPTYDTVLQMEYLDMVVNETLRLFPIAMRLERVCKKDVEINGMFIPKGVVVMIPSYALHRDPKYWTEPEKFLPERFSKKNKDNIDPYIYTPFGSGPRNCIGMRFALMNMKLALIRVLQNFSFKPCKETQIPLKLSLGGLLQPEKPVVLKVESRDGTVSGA
Method: A cell-based method using the P450-Glo CYP3A4 Assay and Screening System with Luciferin-IPA together with the CellTiter-Glo Luminescent Cell Viability Assay was used to measure CYP3A4 inhibition in intact HepG2-CYP3A4 cells [27]. HepG2-CYP3A4 cells were seeded on a transparent 96-well plate at a density of 8.0 × 10^4 cells/well and cultured for 24 h. […] After a 10 min pre-incubation under standard conditions, the CYP3A4 substrate luciferin-IPA was quickly added to all cells other than background samples at a final concentration of 2 µM and the plates were then incubated for 45 min at room temperature. After incubation, the plates were placed on ice and some of the culture media from the cells was transferred to an opaque white 96-well plate and mixed with Luciferin Detection Reagent in a ratio of 1:1 (v/v). The resulting solution was incubated for 20 min at room temperature, then the samples’ luminescence was measured using a microplate reader (Infinite M200 Pro, Tecan, Männedorf, Switzerland) with an integration time of 250 ms. The remaining media was separated from the cells, then 35 µL of pure Opti-MEM was added and the resulting mixture was incubated for 30 min at room temperature. […] Luminescence (which correlates with cell viability) was monitored under conditions identical to those used in the previous step.
The test system of data set [9] is A431-parent cells. Briefly: MTT proliferation assay, A431-parent. The data set is classed as cell-based. Conditions: Homo sapiens, 48 h, read-out: IC50, sensitivity to ensartinib. The method, then:
as §1

Consider 1 compound from publication PMC7226045, “Ensartinib (X-396) Effectively Modulates Pharmacokinetic Resistance Mediated by ABCB1 and ABCG2 Drug Efflux Transporters and CYP3A4 Biotransformation Enzyme” (Cancers, 2020).

Structures are written as SMILES.

T3 sequence (P33527 whole entry): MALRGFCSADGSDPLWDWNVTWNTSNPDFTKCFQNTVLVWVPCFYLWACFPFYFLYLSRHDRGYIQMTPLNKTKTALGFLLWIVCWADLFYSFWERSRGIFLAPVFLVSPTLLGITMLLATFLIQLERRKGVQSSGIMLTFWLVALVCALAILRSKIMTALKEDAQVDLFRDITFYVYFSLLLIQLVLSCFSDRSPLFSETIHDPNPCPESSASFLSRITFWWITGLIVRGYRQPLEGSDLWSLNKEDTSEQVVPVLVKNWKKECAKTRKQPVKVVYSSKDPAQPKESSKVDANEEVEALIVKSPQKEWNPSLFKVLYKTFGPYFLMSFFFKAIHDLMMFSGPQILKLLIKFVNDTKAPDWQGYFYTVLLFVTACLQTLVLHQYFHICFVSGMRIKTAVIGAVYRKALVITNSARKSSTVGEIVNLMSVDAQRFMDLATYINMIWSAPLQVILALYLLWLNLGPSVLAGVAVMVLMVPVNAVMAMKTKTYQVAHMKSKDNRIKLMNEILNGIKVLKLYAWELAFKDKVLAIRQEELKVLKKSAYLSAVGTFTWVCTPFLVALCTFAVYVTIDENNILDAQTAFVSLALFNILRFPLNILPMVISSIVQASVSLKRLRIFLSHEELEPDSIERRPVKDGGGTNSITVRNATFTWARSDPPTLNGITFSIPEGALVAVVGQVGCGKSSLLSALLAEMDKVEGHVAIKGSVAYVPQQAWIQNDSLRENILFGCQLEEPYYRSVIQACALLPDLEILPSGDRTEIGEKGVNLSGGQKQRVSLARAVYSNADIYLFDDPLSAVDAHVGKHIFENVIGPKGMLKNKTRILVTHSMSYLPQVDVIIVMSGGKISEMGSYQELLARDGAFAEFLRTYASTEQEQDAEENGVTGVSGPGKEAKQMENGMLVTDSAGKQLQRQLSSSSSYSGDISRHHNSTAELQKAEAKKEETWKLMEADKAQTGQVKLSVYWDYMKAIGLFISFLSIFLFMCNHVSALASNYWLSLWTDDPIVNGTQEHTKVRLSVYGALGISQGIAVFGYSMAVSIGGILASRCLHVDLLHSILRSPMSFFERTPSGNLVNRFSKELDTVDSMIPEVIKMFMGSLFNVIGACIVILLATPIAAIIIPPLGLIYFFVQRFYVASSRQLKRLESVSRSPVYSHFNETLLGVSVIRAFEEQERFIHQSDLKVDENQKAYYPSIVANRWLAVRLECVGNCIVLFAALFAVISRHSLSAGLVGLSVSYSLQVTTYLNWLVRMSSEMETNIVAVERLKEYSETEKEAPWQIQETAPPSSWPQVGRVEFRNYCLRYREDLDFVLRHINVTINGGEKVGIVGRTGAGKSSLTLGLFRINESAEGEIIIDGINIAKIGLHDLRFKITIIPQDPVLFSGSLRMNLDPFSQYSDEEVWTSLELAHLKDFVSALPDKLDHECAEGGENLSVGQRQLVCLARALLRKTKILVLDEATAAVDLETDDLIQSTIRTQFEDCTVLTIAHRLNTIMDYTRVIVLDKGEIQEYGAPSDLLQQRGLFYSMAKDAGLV

`C[C@@H]1CN(C(=O)c2ccc(NC(=O)c3cc(O[C@H](C)c4c(Cl)ccc(F)c4Cl)c(N)nn3)cc2)C[C@H](C)N1` [ensartinib, Ensartinib]: the IC50 was 1120 nM in data set [1]; 27400 nM in data set [3]; over 50000 nM in data set [4]; 3690 nM in [5]; 23500 nM in data set [8]; 2690 nM in data set [9]. The “effect on baseline vanadate-sensitive ATPase activity of ABCB1” value in data set [2] (activation experiment) is recorded as “significantly increased”. In data set [2] (inhibition experiment), the “effect on verapamil-stimulated ATPase activity of ABCB1” value is on record as “significantly decreased”. Also, the IC50 at 48 h in [6] was 2790 nM; in data set [7] it was 2260 nM.
